From a melting point compilation (Tetko et al.; mined from patent text by program, amines drawn as free bases though some values may be those of a salt) come the findings set out here.

Each structure is given as a SMILES string.

By melting point is commonly meant the temperature, or range, at which the solid turns liquid. For `COc1ccc(OCC(O)CNCCNc2c(C)c(=O)n(C)c(=O)n2C)cc1OC` (stereo not drawn), the melting point is 103 to 104 °C.

`Cc1ccc(C2C(=O)CCC2=O)c(C)c1` gave a melting point of 198 to 200 °C. `O=C1CCC(N2Cc3c(OCc4ccc(CN5CCN(S(=O)(=O)c6ccccc6)CC5)cc4)cccc3C2=O)C(=O)N1` (stereo not drawn): the melting point is 220 to 222 °C.

The compound `CC(=O)n1c(-c2ccc(C)cc2)cc2ccccc21` registered a melting point of 67 to 69 °C. In the case of `O=C(CN1c2ccccc2Cn2c1nc(-c1ccncn1)cc2=O)c1ccccc1` it was 263 to 265 °C. In the case of `Cc1cccc(Nn2c(-c3ccccc3)c(C)[nH]c2=S)c1` it was 206 °C; in that of `CCOC(=O)NC(=NCCN(Cc1ccc(Cl)cc1)c1ccccn1)NCCCc1c[nH]cn1`, 94 to 96 °C. In the case of `CC(C)(C)OC(=O)COc1ccc(-c2c(Cl)c(CN3C(=O)CCC3=O)nc3sc4c(c23)CCS(=O)(=O)C4)cc1` it was 204 to 205 °C. The compound `CC(=O)c1cccc(-c2c(C)c(NC(=O)CC(C)(C)C)c(C)c3c2OCC3c2ccc(C(C)C)cc2)c1` (stereo not drawn) yielded a melting point of 209 to 210 °C. The same measure for `CC1(C)CCC(C)(C)c2cc(Oc3ccc4c(CO)cccc4c3)ccc21`: 131 to 133 °C; for `COc1ccc(-c2nc3ccc(OC)cc3s2)cc1`: 162 to 164 °C; for `CC(C)Cc1ccc(C(C)COC(=O)c2cc(O)c3c(c2)C(=O)c2cccc(O)c2C3=O)cc1` (stereo not drawn): 115 °C.

For the compound `CN(Cc1ccc(Cl)nc1)C(N)=N[N+](=O)[O-]`, the melting point stood at 158 °C. The compound `COc1cc(OC)c(Br)cc1O` yielded a melting point of 78 to 80 °C.

`Cc1ccc(C(=C(C=O)c2nnnn2C)c2ccc(C)cc2F)c(F)c1` yielded a melting point of 154 to 155 °C. The same measure for `Cc1ccccc1NC(=O)Nc1ccc(C(=O)N2CCCCc3sccc32)cc1`: 179 to 182 °C. The same measure for `Cn1c(=O)c2c(nc(CCc3cccc(N)c3)n2C)n(C)c1=O`: 158 to 160 °C; for `CC(C)(Cl)CC(N)C(=O)NC(C(=O)Nc1ccccc1)C(=O)c1ccccc1` (stereo not drawn): 145 to 147 °C; for `Cc1cccc(N2CCN(CCc3c(C)nc4ccc(C)cn4c3=O)CC2)c1`: 115 to 116 °C. Consider `O=C(O)CCC(=O)N1C2CCC(C2)C1C(=O)O` (stereo not drawn), for which the melting point is 132 to 135 °C. `CC(=O)N1c2ccccc2-c2c(N)cnn2C1C` (stereo not drawn) showed a melting point of 170 to 172 °C. Take `NC(=O)c1nn(-c2ccc(F)cc2)c2c1CCc1ccc(NC(=O)c3cc(N4CCOCC4)ncc3Cl)cc1-2`: the melting point was in the range of 309 to 313 °C. Compound `CC(=O)c1cn(S(=O)(=O)c2ccccc2)c2nccc(OC3CCCCC3)c12` registered a melting point of 107 to 109 °C. The same measure for `COc1ccc(C2=C(c3c4n(c5ccccc35)CCC(CN)C4)C(=O)NC2=O)cc1` (stereo not drawn): 195 to 196 °C; for `COC(=O)c1snc(-c2ccc(OC)cc2)c1N`: 129 to 131 °C; for `COCC(C)OC(=O)C(=O)Nc1nc(-c2ccccc2)cs1` (stereo not drawn): 152 to 155 °C. The same measure for `CC1=C(C(=O)Nc2cccc(C(=O)OC(C)C)c2)SCCO1`: 92 to 94 °C; for `CCCCCCC(C)(C)c1ccc(Br)c(OCc2ccccc2)c1`: 58 to 59 °C. Compound `COc1cccc2c1C(=O)N1CCC[C@H]1c1c(C(=O)OC(C)(C)C)ncn1-2` showed a melting point of 200 to 201 °C.

In turn, `Fc1ccc(Sc2c[nH]c3ncccc23)cc1` returned a melting point of 183 to 184 °C. The compound `O=C(O)c1ccccc1SCCCOc1ccc(CCc2ccncc2)cc1` showed a melting point of 151 to 153 °C. In the case of `Nc1c(-c2ccc(-c3ccc(F)cc3F)cc2)nc2ccccc2c1C(=O)O` it was 244 to 247 °C. In the case of `COc1nnc(C)c(-c2ccc(Cl)nc2)c1-c1c(F)cc(F)cc1F` it was 123 to 124 °C; in that of `O=C(O)c1ccc(-c2ccc(-c3ccc(C(F)(F)F)cc3)o2)cc1`, 270 to 271 °C; in that of `N#CC1CN1C(=O)c1ccc(Cl)nn1` (stereo not drawn), 109 to 115 °C. In the case of `COC(=O)C1CCC2(C)C(=CC(O)C3C2CCC2(C)C(O)CCC32)C1` (stereo not drawn) it was 150 to 152 °C; in that of `Cc1cc(-c2nc(C)c(C)o2)cc(C)c1O`, 203 to 205 °C; in that of `CN1CCc2c(c3ccccc3n2CCC(N)=S)C1`, 149 to 151 °C. `O=C(Nc1ccccc1Sc1c(Cl)cncc1Cl)N[C@@H](Cc1ccc(NC(=O)c2c(Cl)cncc2Cl)cc1)C(=O)O` had a melting point of 211 °C.

In turn, `O=C(O)COc1ccc2c(c1)CC(NS(=O)(=O)c1ccc(Cl)cc1)C2` (stereo not drawn) returned a melting point of 170 to 172 °C. In the case of `O=C1NC(C(=O)NCCO[N+](=O)[O-])C(c2cccnc2)S1` (stereo not drawn) it was 139 to 140 °C; in that of `CCCCn1c(=O)n(CCCC)c2cc3c(N4CCN(C(=O)Nc5ccc(Oc6ccccc6)cc5)CC4)ncnc3cc21`, 134 to 136 °C; in that of `Cc1c(F)ncn1CC(=O)c1ccccc1`, 84.5 °C. The same measure for `O=C(Nc1n[nH]c2nc(Oc3ccc(F)cc3F)ncc12)C1CCCC1`: 206 to 208 °C; for `O=C1Nc2ccc(NC(=O)C(=O)N3CCC(Cc4ccc(F)cc4)CC3)cc2C1=O`: 205 to 206 °C; for `N#Cc1ccc(Oc2ccc(C#N)cc2C#N)cc1`: 222 to 223 °C.

For the compound `CC(=O)c1ccc2c(c1)ncn2-c1cccc(C(=O)OC2CCN(C)CC2)c1`, the melting point fell in the range of 106 to 107 °C. `N#Cc1ccc(N2C(=O)C3=CCCN3C2=O)c2ccccc12` gave a melting point of 230 to 232 °C. As for `CNC(=O)C=C(C)C=CC=C(C)C=Cc1c(C)cc(OC)c(C)c1C`, the melting point was 206 °C. `CCCCCCCCCCCCCCc1ccc(CC)c(O)c1` showed a melting point of 59 to 60 °C. In the case of `CCCCCS(=O)(=O)NC(=O)C=Cc1ccc(OCCCC#N)cc1Oc1ncc(C(F)(F)F)cc1Cl` it was 165 to 166 °C; in that of `COc1ccc(CCNCCc2ccc(OC)c(OC)c2)cc1OC`, 56 to 58 °C; in that of `Oc1c2ncnc(S)c2nn1-c1ccccc1`, above 300 °C.

For the compound `N[C@@H](CC(=O)N1CCn2c(nnc2C(F)(F)F)C1)Cc1cc(F)c(F)cc1F`, the melting point turned out to be 118 °C. Compound `CNC(=O)c1cc2c(nc(C)n2C)c2c1CCC(c1ccccc1)O2` (stereo not drawn) showed a melting point of 291 to 292 °C. The same measure for `O=C(O)C(Cc1ccccc1)Oc1ccc(-c2ccc(-c3c(Cc4ccccc4)oc4cccnc34)cc2)cc1` (stereo not drawn): 85 to 88 °C.

Regarding `c1cc(Nc2ccc(-n3cccc3)cn2)cc(-n2ccnc2)c1`, the melting point lay within 152 to 156 °C.

`CC(C)n1nc(-c2c(-c3ccccc3)nn3ccc(C(=O)NC4CC4)cc23)ccc1=O`: the melting point fell in the range of 184 to 185 °C. Compound `Cc1ccc2cc([N+](=O)[O-])c3ccc(C)nc3c2n1` registered a melting point of 184 to 186 °C.

In turn, `O=C1CC(Cc2ccc(Cl)cc2Cl)CN1` (stereo not drawn) registered a melting point of 85 to 86 °C. Regarding `CCOC(=O)/C=C/c1ccc(/C=C(\C)c2ccc3c(c2)C(C)(C)CCC3(C)C)cc1`, the melting point lay within 126 to 127 °C.

`O=c1[nH]c2cc(Cl)ccc2c(=O)c2c(-c3ccccc3)n[nH]c12` gave a melting point of 328 to 331 °C. The same measure for `CCOC(=O)c1cc(S(N)(=O)=O)c(Cl)cc1Cl`: 119 to 122 °C; for `O=C(CCCl)Nc1ccccc1`: 114 to 116 °C; for `CCCNC(=NS(=O)(=O)N(C)C)N1CC(c2ccccc2)C(c2ccc(Cl)cc2)=N1` (stereo not drawn): 127 to 129 °C. In the case of `COc1ccc(-c2ccc(Cl)cc2)c(COc2ccc(-c3nc4cc(C(=O)O)ccc4n3C3CCCCC3)cc2)c1` it was 248 to 249 °C; in that of `Cc1cccc(-c2nc(C(C)C)[nH]c2-c2ccc(F)c(-c3cnn(C)c3)c2)n1`, 77 to 97 °C. In the case of `Cc1nn(-c2ccccc2)c(-c2ccccc2)c1CC(=O)O` it was 159 to 161 °C.

In the case of `C[C@@H]1Nc2nc(Cl)ccc2NC1=O`, the melting point fell in the range of 236 to 237 °C.

`CC1(C)CC(=O)c2c(SCc3ccco3)sc(-c3cc[nH]n3)c2C1` had a melting point of 198 to 200 °C. The same measure for `CC(=O)Nc1csc(Br)n1`: 165 °C; for `C=C(CS(=O)(=O)c1ccc(C)cc1)c1ccccc1`: 103 °C; for `COc1cccc(N(CCN2CCC(C(=O)c3ccc(F)cc3)CC2)C(=O)c2ccc(N)cc2)c1`: 126 to 128 °C. Take `CCOC(=O)c1cccc(C(=O)c2cccnc2-c2ccc(S(C)(=O)=O)cc2)c1`: the melting point was 125 to 132 °C.

Regarding `NC(=O)c1nnn(Cc2cc(Cl)c(S(=O)c3ccc(Cl)cc3)c(Cl)c2)c1N` (stereo not drawn), the melting point is 195 to 197 °C. In the case of `Cc1c(N)cccc1OC[C@@H]1CCCN1C(=O)OC(C)(C)C` it was 110 °C. The same measure for `CCOC(=O)c1cccc(NC(=O)NCC(=O)N2[C@@H](c3ccccc3)SC[C@H]2C(=O)OC(C)(C)C)c1`: 85 °C; for `CC1(C)OC(c2ccc(S(C)(=O)=O)cc2)=C(c2cc(F)cc(F)c2)C1=O`: 141 to 142 °C. `COc1ccc(-c2ccc(O)c(C34CC5CC(CC(C5)C3)C4)c2)cc1C=C1SC(N2CCOCC2)=NC1=O`: the melting point was in the range of 355 to 360 °C.

Compound `CCOP(=O)(CCCCC1(C(=O)NCC(F)(F)F)c2ccccc2-c2ccccc21)OCC` returned a melting point of 87 to 89 °C. For `CCCCCCc1cc2c(s1)-n1c(C)nnc1C(C)N=C2c1ccccc1C` (stereo not drawn), the melting point is 83 to 85 °C. In the case of `C=C1CC2C(=CCC3(C)C2CC(C)C3(O)C(C)=O)C2(C)CCC(=O)C=C12` (stereo not drawn) it was 157 to 158 °C. The same measure for `CC(=O)Nc1nc2c(s1)CCN(Cc1ccccc1)CC2`: 129 to 130 °C; for `O=C(c1ccc([N+](=O)[O-])cc1)N1Cc2ccccc2-c2ccccc21`: 153 to 154 °C; for `CCOC=NN=C(c1ccc(Cl)cc1)c1ccc(OS(C)(=O)=O)cc1`: 104 to 107 °C.

Regarding `CN1CCC23CC(=O)CCC2(O)C1Cc1ccccc13` (stereo not drawn), the melting point fell in the range of 143 to 144 °C. For `COC(C#N)c1ccc2ccccc2c1` (stereo not drawn), the melting point was in the range of 47 to 48 °C.

Turning to `Cc1cc(-c2cnn3c(C(F)F)cc(-c4ccc(C(F)(F)F)cc4)nc23)ccn1`, the melting point is 213 °C.
